The supplement of paper PMC10307832

Key:
Test in all cases: relative viability (nuclei count vs DMSO), 5 days (fraction); higher = more cells survive
JZL-184 + Navitoclax = compound: C1CN(CCC1C(C2=CC3=C(C=C2)OCO3)(C4=CC5=C(C=C4)OCO5)O)C(=O)OC6=CC=C(C=C6)[N+](=O)[O-] [JZL-184] + CC1(C)CCC(c2ccc(Cl)cc2)=C(CN2CCN(c3ccc(C(=O)NS(=O)(=O)c4ccc(N[C@H](CCN5CCOCC5)CSc5ccccc5)c(S(=O)(=O)C(F)(F)F)c4)cc3)CC2)C1 [Navitoclax] (partner 0.5 µM)
Procedure, shortened: (§1)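 Dosing by pin tool came one day after lung cancer cell lines were seeded in 1536-well plates, using either one drug or a fixed anchor-drug dose plus five library-drug doses (not always all listed) in √10 steps. After 5 days, nuclei were counted on 4× images. Relative viability is treated-well nuclei count divided by vehicle-well nuclei count, and values are medians of duplicate plates.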

JZL-184 + Decitabine = compound: C1CN(CCC1C(C2=CC3=C(C=C2)OCO3)(C4=CC5=C(C=C4)OCO5)O)C(=O)OC6=CC=C(C=C6)[N+](=O)[O-] [JZL-184] + Nc1ncn([C@H]2C[C@H](O)[C@@H](CO)O2)c(=O)n1 [Decitabine] (partner 2 µM)
Procedure, shortened: as §1

JZL-184 + Dasatinib = compound: C1CN(CCC1C(C2=CC3=C(C=C2)OCO3)(C4=CC5=C(C=C4)OCO5)O)C(=O)OC6=CC=C(C=C6)[N+](=O)[O-] [JZL-184] + Cc1nc(Nc2ncc(C(=O)Nc3c(C)cccc3Cl)s2)cc(N2CCN(CCO)CC2)n1 [Dasatinib] (partner 0.075 µM)
Procedure, shortened: as §1

JZL-184 + Foretinib = compound: C1CN(CCC1C(C2=CC3=C(C=C2)OCO3)(C4=CC5=C(C=C4)OCO5)O)C(=O)OC6=CC=C(C=C6)[N+](=O)[O-] [JZL-184] + COc1cc2c(Oc3ccc(NC(=O)C4(C(=O)Nc5ccc(F)cc5)CC4)cc3F)ccnc2cc1OCCCN1CCOCC1 [Foretinib] (partner 0.25 µM)
Procedure, shortened: as §1

JZL-184 + Olaparib = compound: C1CN(CCC1C(C2=CC3=C(C=C2)OCO3)(C4=CC5=C(C=C4)OCO5)O)C(=O)OC6=CC=C(C=C6)[N+](=O)[O-] [JZL-184] + O=C(c1cc(Cc2n[nH]c(=O)c3ccccc23)ccc1F)N1CCN(C(=O)C2CC2)CC1 [Olaparib] (partner 8 µM)
Procedure, shortened: as §1

Cell Line	relative viability (JZL-184 + Navitoclax; first compound 0.04 µM)	relative viability (JZL-184 + Navitoclax; first compound 0.4 µM)	relative viability (JZL-184 + Navitoclax; first compound 1.265 µM)	relative viability (JZL-184 + Navitoclax; first compound 4 µM)	relative viability (JZL-184 + Decitabine; first compound 0.04 µM)	relative viability (JZL-184 + Decitabine; first compound 1.265 µM)	relative viability (JZL-184 + Decitabine; first compound 4 µM)	relative viability (JZL-184 + Dasatinib; first compound 0.04 µM)	relative viability (JZL-184 + Dasatinib; first compound 0.4 µM)	relative viability (JZL-184 + Dasatinib; first compound 1.265 µM)	relative viability (JZL-184 + Dasatinib; first compound 4 µM)	relative viability (JZL-184 + Foretinib; first compound 0.04 µM)	relative viability (JZL-184 + Foretinib; first compound 0.4 µM)	relative viability (JZL-184 + Foretinib; first compound 1.265 µM)	relative viability (JZL-184 + Foretinib; first compound 4 µM)	relative viability (JZL-184 + Olaparib; first compound 0.04 µM)	relative viability (JZL-184 + Olaparib; first compound 1.265 µM)	relative viability (JZL-184 + Olaparib; first compound 4 µM)	relative viability (JZL-184 + Decitabine; first compound 0.4 µM)	relative viability (JZL-184 + Olaparib; first compound 0.4 µM)
HARA	1.19	1.06	1.15	1.14	0.621	0.561	0.468	0.309	0.16	0.29	0.28	1.16	0.569	0.968	0.924	0.762	0.762	0.947	–	–
EMC-BAC-2	1.22	1.12	1.17	1.11	1.02	0.958	0.944	0.349	0.32	0.336	0.326	1.09	0.957	1.09	0.947	0.473	0.491	0.492	0.946	0.479
PC-14	0.998	1	0.964	0.992	0.343	0.198	0.241	0.293	0.271	0.287	0.255	1.02	0.927	0.954	0.946	0.251	0.233	0.219	0.199	0.223
NCI-H520	1.19	1.13	1.15	1.04	0.546	0.503	0.477	0.188	0.2	0.178	0.168	0.893	0.784	0.831	0.771	0.39	0.351	0.304	0.545	0.369
NCI-H1755	1.01	0.954	1.01	0.918	0.751	0.71	0.704	0.445	0.428	0.406	0.396	0.989	0.917	0.933	0.919	0.812	0.891	0.895	0.701	0.896
NCI-H2087	1	0.997	1.18	0.996	0.271	0.415	0.237	0.905	0.905	0.716	0.875	1.01	1.03	1.17	1.19	0.714	0.665	0.517	0.301	0.585
NCI-H2023	1.07	0.942	1.02	0.963	0.254	0.175	0.213	0.713	0.549	0.587	0.48	1.01	0.874	0.978	0.79	0.529	0.484	0.44	0.225	0.466
NCI-H2085	1.1	1.18	1.13	1.08	–	0.521	0.627	0.236	0.234	0.299	0.261	0.954	0.827	1.12	0.96	–	0.815	0.704	0.538	0.743
LCLC-97TM1	0.362	–	0.663	0.269	0.228	0.236	0.216	0.903	0.778	0.911	0.763	1.01	0.981	0.979	0.867	0.437	0.371	0.385	0.2	0.374
NCI-H2126	0.847	0.807	0.897	0.873	0.597	0.558	0.555	0.612	0.639	0.607	0.612	1.15	1.09	1.14	1.12	0.892	0.975	0.925	0.608	0.891
201T	1.23	1.19	1.17	1.18	0.83	0.841	0.845	0.577	0.535	0.61	0.574	1.15	1.09	1.15	1.11	0.858	0.82	0.841	0.84	0.845
NCI-H1915	0.819	0.749	0.794	0.722	0.243	0.272	0.266	0.318	0.298	0.364	0.281	1.15	1.01	1.18	1.07	0.262	0.273	0.233	0.266	0.264
BEN	0.0556	0.0635	0.0659	0.0756	0.742	0.78	0.767	0.333	0.349	0.328	0.337	0.666	0.772	0.78	0.846	1.15	1.24	1.03	0.537	1.01
NCI-H2347	0.68	0.706	0.82	0.903	–	0.657	0.644	0.277	0.305	0.29	0.369	0.771	0.884	1.13	1.3	–	0.586	0.53	0.577	0.577
H3255	0.589	0.492	0.678	0.522	0.648	0.59	0.646	0.353	0.346	0.288	0.38	0.832	0.684	0.95	0.987	0.614	0.587	0.481	0.63	0.574
NCI-H441	0.802	0.59	0.796	0.608	0.237	0.188	0.281	0.584	0.546	0.606	0.524	1.36	0.907	0.897	1.06	0.714	0.659	0.463	0.249	0.473
NCI-H1975	1.3	0.967	1.2	1.05	0.429	0.413	0.397	0.427	0.356	0.347	0.31	1.02	0.94	0.987	0.87	0.849	0.876	0.694	0.368	0.726
NCI-H647	1.24	1.12	1.12	1.07	0.455	0.353	0.426	0.177	0.174	0.283	0.145	1.19	1.2	1.27	1.24	0.654	0.471	0.564	0.302	0.481
A-427	1.02	0.879	0.962	0.992	0.617	0.599	0.537	0.785	0.683	0.71	0.706	1.06	1.03	1.33	0.972	0.807	0.77	0.732	0.585	0.739
LXF-289	0.973	0.832	0.91	0.928	0.438	0.353	0.388	0.173	0.281	0.207	0.307	1.05	0.957	0.997	0.947	1.16	1.01	0.975	0.364	1.06
NCI-H727	0.383	0.455	0.543	0.422	0.928	0.626	1.13	0.37	0.443	0.398	0.334	0.981	0.744	0.932	0.845	0.661	0.747	0.552	0.663	0.723
NCI-H1437	1.1	0.959	0.965	1.06	0.649	0.585	0.561	0.414	0.304	0.434	0.405	1.27	1.16	1.31	1.21	0.665	0.632	0.636	0.611	0.61
RERF-LC-KJ	1.01	1.1	0.951	0.825	0.854	0.808	0.56	0.909	0.72	0.864	0.759	0.933	0.9	0.876	0.781	0.976	0.895	0.905	0.706	0.911
EPLC-272H	1.12	1.11	1.2	1.25	0.356	0.396	0.384	0.403	0.41	0.445	0.325	0.773	0.668	0.907	0.712	0.68	0.805	0.778	0.386	0.613
NCI-H596	0.936	0.993	0.93	0.791	1.1	1.01	0.984	0.739	0.437	0.658	0.566	0.879	0.719	0.968	0.801	0.669	0.721	0.753	0.96	0.728
NCI-H322M	1.18	1.26	1.32	1.31	0.661	0.678	0.668	0.252	0.265	0.264	0.252	1.12	0.932	1.03	0.791	0.785	0.774	0.733	0.684	0.591
